ChEMBL document CHEMBL5338707, “Design, synthesis and bioactivity evaluation of favorable evodiamine derivative scaffold for developing cancer therapy” (Eur J Med Chem, 2022)
Activity calls are given as the source filed them. No cut-off for these calls is given here.

Tests used:
[1] = target: T1, DNA topoisomerase 1 (Homo sapiens) (UniProt P11387); experiment: Inhibition of Topoisomerase 1 (unknown origin) at 25 uM incubated for 15 mins by electrophoretic analysis relative to control
T1 sequence (whole entry): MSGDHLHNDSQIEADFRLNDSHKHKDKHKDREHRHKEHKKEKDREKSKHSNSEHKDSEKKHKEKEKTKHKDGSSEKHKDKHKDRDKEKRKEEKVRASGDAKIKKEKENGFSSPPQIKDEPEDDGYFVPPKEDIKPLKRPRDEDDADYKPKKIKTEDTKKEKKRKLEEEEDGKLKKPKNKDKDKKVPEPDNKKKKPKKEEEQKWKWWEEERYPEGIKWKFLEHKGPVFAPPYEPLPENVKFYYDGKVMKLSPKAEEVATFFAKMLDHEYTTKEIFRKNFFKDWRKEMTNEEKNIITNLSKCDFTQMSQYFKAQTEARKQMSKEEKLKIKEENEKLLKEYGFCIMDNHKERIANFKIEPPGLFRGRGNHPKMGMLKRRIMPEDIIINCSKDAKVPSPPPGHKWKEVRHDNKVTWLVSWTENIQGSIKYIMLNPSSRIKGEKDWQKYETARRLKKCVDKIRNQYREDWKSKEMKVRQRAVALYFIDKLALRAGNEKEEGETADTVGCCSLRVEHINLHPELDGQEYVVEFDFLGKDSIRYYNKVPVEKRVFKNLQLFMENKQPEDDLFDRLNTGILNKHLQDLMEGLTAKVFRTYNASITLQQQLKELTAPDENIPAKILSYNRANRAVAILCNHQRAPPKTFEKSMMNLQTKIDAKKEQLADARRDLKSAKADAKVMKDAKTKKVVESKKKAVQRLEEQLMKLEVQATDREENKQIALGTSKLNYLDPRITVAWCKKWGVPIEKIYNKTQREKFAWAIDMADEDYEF

[2] = target: T1, DNA topoisomerase 1 (Homo sapiens); experiment: Inhibition of Topoisomerase 1 (unknown origin) at 50 uM incubated for 15 mins by electrophoretic analysis
[3] = target: T1, DNA topoisomerase 1 (Homo sapiens); experiment: Inhibition of Topoisomerase 1 (unknown origin) at 100 uM incubated for 15 mins by electrophoretic analysis
[4] = tested on: MGC-803; experiment: Antitumor activity against human MGC-803 cells xenografted in BALB/C mouse assessed as tumor growth inhibition at 0.5 mg/kg, ip administered once a day for 17 days relative to control; assay type: functional; settings: MGC-803, 408 h, time 17 day, read-out: TGI
[5] = tested on: MGC-803; experiment: Induction of apoptosis in human MGC-803 cells assessed as viable cells at 96 nM incubated for 24 hrs by AnnexinV-FITC/PI staining based flow cytometric analysis (reference value: 98.59%); assay type: functional; settings: read-out: Activity
[6] = tested on: MGC-803; experiment: Induction of apoptosis in human MGC-803 cells assessed as early apoptotic cells at 96 nM incubated for 24 hrs by AnnexinV-FITC/PI staining based flow cytometric analysis (reference value: 0.38%); assay type: functional
[7] = Toxicity in BALB/C mouse xenografted with human MGC-803 cells assessed as decrease in body weight at 0.5 mg/kg, ip administered once daily for 17 days; assay type: organism-based; settings: in vivo, 408 h, time 17 day
[8] = tested on: SGC-7901; experiment: Induction of apoptosis in human SGC-7901 cells assessed as late apoptotic cells at 96 nM incubated for 24 hrs by AnnexinV-FITC/PI staining based flow cytometric analysis (reference value: 2.00%); assay type: functional
[9] = tested on: MGC-803; experiment: Cell cycle arrest in human MGC-803 cells assessed as accumulation of cells at G0/G1 phase at 48 nM incubated for 24 hrs by PI staining based flow cytometric analysis (Rvb =76.60%); assay type: functional
[10] = tested on: MGC-803; experiment: Cell cycle arrest in human MGC-803 cells assessed as accumulation of cells at S phase at 48 nM incubated for 24 hrs by PI staining based flow cytometric analysis (Rvb =7.84%); assay type: functional
[11] = tested on: SGC-7901; experiment: Cell cycle arrest in human SGC-7901 cells assessed as accumulation of cells at S phase at 48 nM incubated for 24 hrs by PI staining based flow cytometric analysis (Rvb =18.41%); assay type: functional
[12] = tested on: SGC-7901; experiment: Induction of apoptosis in human SGC-7901 cells assessed as necrotic cells at 96 nM incubated for 24 hrs by AnnexinV-FITC/PI staining based flow cytometric analysis (reference value: 0.63%); assay type: functional
[13] = tested on: SGC-7901; experiment: Induction of apoptosis in human SGC-7901 cells assessed as early apoptotic cells at 96 nM incubated for 24 hrs by AnnexinV-FITC/PI staining based flow cytometric analysis (reference value: 0.47%); assay type: functional
[14] = tested on: MGC-803; experiment: Induction of apoptosis in human MGC-803 cells assessed as late apoptotic cells at 96 nM incubated for 24 hrs by AnnexinV-FITC/PI staining based flow cytometric analysis (reference value: 0.52%); assay type: functional
[15] = tested on: MGC-803; experiment: Cell cycle arrest in human MGC-803 cells assessed as accumulation of cells at G2/M phase at 48 nM incubated for 24 hrs by PI staining based flow cytometric analysis (Rvb =15.42%); assay type: functional
[16] = tested on: SGC-7901; experiment: Induction of apoptosis in human SGC-7901 cells assessed as viable cells at 96 nM incubated for 24 hrs by AnnexinV-FITC/PI staining based flow cytometric analysis (reference value: 96.94%); assay type: functional; settings: read-out: Activity
[17] = tested on: MGC-803; experiment: Induction of apoptosis in human MGC-803 cells assessed as necrotic cells at 96 nM incubated for 24 hrs by AnnexinV-FITC/PI staining based flow cytometric analysis (reference value: 0.53%); assay type: functional
[18] = tested on: SGC-7901; experiment: Cell cycle arrest in human SGC-7901 cells assessed as accumulation of cells at G2/M phase at 48 nM incubated for 24 hrs by PI staining based flow cytometric analysis (Rvb =18.84%); assay type: functional
[19] = tested on: SGC-7901; experiment: Cell cycle arrest in human SGC-7901 cells assessed as accumulation of cells at G0/G1 phase at 48 nM incubated for 24 hrs by PI staining based flow cytometric analysis (Rvb =84.12%); assay type: functional

Row | inhibition [1] | inhibition [2] | inhibition [3] | Compound | inhibition in vivo at 0.5 mg/kg [4] | viability at 0.096 µM [5] | Activity [6] | Activity [7] | Activity [8] | Activity [9] | Activity [10] | Activity [11] | Activity [12] | Activity [13] | Activity [14] | Activity [15] | viability at 0.096 µM [16] | Activity [17] | Activity [18] | Activity [19]
1 | 46.2% | Active | Active | Cc1ccc2c(c1)C(=O)N1CCc3c([nH]c4ccc(C)cc34)C1N2c1cccc(F)c1 (centres undefined) | – | – | – | – | – | – | – | – | – | – | – | – | – | – | – | –
2 | – | – | – | CC[C@@]1(O)C(=O)OCc2c1cc1n(c2=O)Cc2cc3c(CN(C)C)c(O)ccc3nc2-1 [TOPOTECAN] | 67% | 77% | 5.23% | Toxic | 9.93% | 79.72% | 6.84% | 18.52% | 1.22% | 0.8% | 15.95% | 13.27% | 88.1% | 1.75% | 22.72% | 58.3%
